Reference: patent US20030065030A1, “Autonomic controlling agents and health drinks and foods” (priority 2001, published 2003)

Legend:
Assay type in all cases: in vivo, rat
[1] = system: sympathetic nerve adrenal branches; test: efferent neural activity of the sympathetic nerve adrenal branches after intravenous carnosine; settings: 100 ng intravenous
Procedure: (§1) According to the method of Niijima (Neurobiology 3:299-307, 1995), the effect of carnosine on the autonomic nerve activity was investigated. Wistar male rats, weighing about 300 g, that had been kept in an environment of room temperature (24° C.) and free access to the feed were fasted (with free access to water) 12 hours before the start of the experiment. Rats were subjected to abdominal section under urethane anesthesia (1 g/kg body weight, intraperitoneal administration), neurofilaments were isolated from central cut ends of a sympathetic nerve branch or a vagal nerve branch, and the efferent neural activity was recorded via an AC amplifier. The neural activity was observed using an oscilloscope and was recorded into magnetic tape. At the same time, the time course of the neural activity was recorded with a pen-type recorder via a rate meter with a reset time set at 5 seconds.
(§2) Carnosine (100 ng or 1,000 ng dissolved in 0.1 ml physiological saline) was intravenously administered. As the control, physiological saline (0.1 ml) was alone administered intravenously.
(§3) The effect of carnosine administration was calculated as the neural activity count (%) after carnosine administration relative to neural activity count (mean value of 10 activity counts during 5 minutes) before administration set at 100. Five rats were used for each experiment. Data were tested with ANOVA (p<0.05) and were expressed as mean +/− standard error.

[2] = system: sympathetic nerve renal branches; test: efferent neural activity of the sympathetic nerve renal branches after intravenous carnosine; settings: 1,000 ng intravenous
Procedure: as §1, §2, §3

[3] = system: vagal nerve celiac branches; test: efferent neural activity of the vagal nerve celiac branches after intravenous carnosine; settings: 100 ng intravenous
Procedure: as §1, §2, §3
In order to study the effect on the neural activity of the vagal nerve, the efferent neural activity of the vagal nerve celiac branches was recorded.

2DG hyperglycemic rats = test: anti-hyperglycemia in the 2DG hyperglycemic rats
From the text: Since blood glucose levels are expected to be reduced when the activity of the autonomic nervous system is controlled by carnosine at a low dose, the effect of carnosine on anti-hyperglycemia in the 2DG hyperglycemic rats was investigated according to the method of Chun et al. (Brain Research 809:165-174, 1998). Wistar male rats (initial weight, about 250 g) were used that had been acclimated for at least 10 days to an environment in a room illuminated with an incandescent light of 80 lux on the average for 12 hours at room temperature (24 +/− 1° C.) with free access to the feed.
Three days before the experiment, rats under anesthesia with pentobarbital (35 mg/kg body weight, intraperitoneal administration) received the insertion of a cardiac catheter comprising a silastic tubing (Dow Corning, Midland, Mich.) and a polyethylene tubing (Clay Adams, Parsippany, N.J.) into the right atrium and a polyethylene tubing into the right lateral cerebral ventricle (LCV). On the day of the experiment, carnosine dissolved in physiological saline was administered to the rats intracranially (0.01 ml) or intraperitoneally (0.1 ml) with the simultaneous administration into the rat LCV of 80 μmol 2-deoxy-D-glucose (2DG, 0.01 ml). The control rats received physiological saline instead of carnosine and an artificial cerebrospinal fluid in stead of 2DG, each at the same amount.
Sixty minutes after the administration of 2DG into the LCV, 300 μl of blood was taken via the cardiac catheter and the plasma level of glucose was determined. The glucose concentrations in the plasma were measured using the Fuji-Dri-chem system (Fuji Film Tokyo) according to the glucose oxidase method. Changes in plasma concentrations of glucose were expressed as a ratio (%) relative to the control value at 90 minutes after 2DG administration set at 100. Four or five rats were used in the experiments. Data were tested with ANOVA (p<0.05) and were expressed as mean +/− standard error.

[4] = system: DOCA-salt hypertensive rats; test: anti-hypertensive effect in DOCA-salt hypertensive rats (systolic blood pressure)
Procedure: Sprague-Dawley male rats (6-week old) were used. The animals were anesthetized by the intraperitoneal administration of pentobarbital at 40 mg/kg body weight, and the right flank was dissected to remove the right kidney. After the surgical operation and a one week recovery period, the animals were divided into the pseudosurgery (sham) group and the deoxycorticosterone acetate (DOCA) salt group. Each group was further divided into the normal diet group, the 0.001% carnosine-containing diet group, and the 0.0001% carnosine-containing group.
The rats of the DOCA-salt group received the subcutaneous injection of DOCA suspended in corn oil at 15 mg/kg body weight twice per week, and tap water supplemented with 1% sodium chloride was given as the drinking water. The sham group received neither DOCA nor sodium chloride. The systolic blood pressure was monitored once per week for five weeks using the tail cuff and the pneumatic pulse transducer (BP-98A, Softron). The experiment employed 9 rats in the DOCA group and 6 rats in the sham group. Data were tested with ANOVA (p<0.05) and were expressed as mean +/− standard error.

[5] = 30 minutes after administration
[6] = 60 minutes after administration
[7] = 90 minutes after administration

NCCC(=O)N[C@@H](Cc1cnc[nH]1)C(=O)O [carnosine, β-alanyl-L-histidine] was tested, and the “suppression rate of efferent neural activity of the sympathetic nerve adrenal branches” value [1, 5] was 31.3%, the “suppression rate of efferent neural activity of the sympathetic nerve adrenal branches” value [1, 6] was 46.9% and the “suppression rate of efferent neural activity of the sympathetic nerve adrenal branches” value [1, 7] was 58.1%. The “suppression rate of efferent neural activity of the sympathetic nerve renal branches” value [2, 5] was 29.7%, the “suppression rate of efferent neural activity of the sympathetic nerve renal branches” value [2, 6] was 32.8% and the “suppression rate of efferent neural activity of the sympathetic nerve renal branches” value [2, 7] was 28.0%. The “promotion rate of efferent neural activity of the vagal nerve celiac branches” value (“promotion rate” for short) [3, 5] was 15.4%, the “promotion rate” value [3, 6] was 28.6% and the “promotion rate” value [3, 7] was 48.7%. The effect on hyperglycemia (2DG hyperglycemic rats; 10 ng intracranially administered) was “suppressed hyperglycemia”, the “suppression rate of hyperglycemia (plasma glucose)” value (“suppression rate of hyperglycemia” for short) (2DG hyperglycemic rats; 10 ng intraperitoneal) was 16.0% and the “suppression rate of hyperglycemia” value (2DG hyperglycemic rats; 100 ng intraperitoneal) was 31.5%. For the same compound, the “suppression rate of hyperglycemia” value (2DG hyperglycemic rats; 1,000 ng intraperitoneal) was 26.8%, the “suppression rate of hyperglycemia” value (2DG hyperglycemic rats; 10,000 ng intraperitoneal) was 27.6% and the “suppression rate of hyperglycemia” value (2DG hyperglycemic rats; 100,000 ng intraperitoneal) was 21.9%. The hypoglycemic action (2DG hyperglycemic rats; high dose of 1,000,000 ng (3.3 mg/kg body weight) intraperitoneal) was “did not show any hypoglycemic action”, the “suppression rate of increase in systolic blood pressure” value (“suppression rate of increase” below) ([4]; 0.0001% carnosine-containing diet, week five) was 17.8% and the “suppression rate of increase” value ([4]; 0.0001% carnosine-containing diet, week four) was 22.1%. The “suppression rate of increase” value ([4]; 0.0001% carnosine-containing diet, week one) was 9.6%, the “suppression rate of increase” value ([4]; 0.0001% carnosine-containing diet, week three) was 15.0% and the “suppression rate of increase” value ([4]; 0.0001% carnosine-containing diet, week two) was 10.2%. For the same compound, the “suppression rate of increase” value ([4]; 0.001% carnosine-containing diet, week five) was 25.5%, the “suppression rate of increase” value ([4]; 0.001% carnosine-containing diet, week four) was 21.5% and the “suppression rate of increase” value ([4]; 0.001% carnosine-containing diet, week one) was 6.2%. For the same compound, the “suppression rate of increase” value ([4]; 0.001% carnosine-containing diet, week three) was 19.6% and the “suppression rate of increase” value ([4]; 0.001% carnosine-containing diet, week two) was 12.4%.
